Literature values in patent US12030852B2, “Method for producing fatty alcohol esters of hydroxycarboxylic acids” (IOI Oleo GmbH, priority 2019, dated 2024).

Conditions: even if several grams are taken; short plasma half-life

duration of ketosis: about three to four
SMILES: CC(O)CC(=O)O (stereo not shown) [3-hydroxybutyric acid]
